Assay type in all cases: cell-based
The test system of series [1] is human monocyte-derived dendritic cells (moDCs). The series is described as follows: IL-1β secretion by human moDCs treated with lipid and R848. Particulars: human moDCs primed with R848 for 3 hours, then nigericin; FIG. 2B. The protocol: (§1) Human monocytes were isolated from Leukopaks purchased from Miltenyi using the StraightFrom Leukopak CD14 microbead kit (Miltenyi). Isolations were completed following manufacturer's instructions. Monocytes were then aliquoted and frozen in fetal bovine serum containing 10% dimethyl sulfoxide. For studies with monocyte-derived dendritic cell (moDC) cultures, monocytes were thawed and cultured in RPMI medium containing 10% FBS, 50 units/mL penicillin, […] streptomycin, 2 mM L-glutamine, 1 mM sodium pyruvate, […] beta-mercaptoethanol, 10 mM HEPES, and Gibco MEM non-essential amino acids (R10 media). To differentiate monocytes into moDCs, recombinant human GM-CSF (50 ng/mL) and IL-4 (25 ng/mL) were added to R10 media. Cells were cultured for 6 days with GM-CSF and IL-4, with an additional cell feeding with R10 containing GM-CSF and IL-4 on day 3.
Six days after differentiation, moDC were collected and counted. Cells were plated into 96-well flat-bottom plates at 1×10^5 cells/well. Cells were treated with or without 1 μg/mL R848 (final) and with or without a hyperactivating lipid (or vehicle control). In some experiments, MCC950, an inhibitor of the NLRP3 inflammasome, was added at a final concentration of 10 uM. In some experiments, nigericin, which causes NLRP3 inflammasome activation and subsequent pyroptosis, was used as a positive control at 20 uM. Cells and stimuli totaled a final volume of […].
Lipid stocks were then further diluted in PBS to treat cells.
(§2) After an overnight incubation, cells and culture supernatant were used for downstream readouts. One hundred and fifty microliters of cell supernatant were collected. Viability was measured using the CellTiter-Glo assay (Promega) which measures ATP content from cells. Fifty microliters of CellTiter-Glo reagent were added to 50 μL of cells. Luminescence was quantified on a SpectraMax m5e plate reader using an integration time of 500 milliseconds. Viability data were set relative to control conditions where cells were treated with only R848. To measure IL-1β secretion, the human IL-1β Lumit kit (Promega) was used to assay cell culture supernatant. Culture supernatant samples were incubated with enzyme-linked antibodies in a 384-well plate for 1 hour before addition of luminescent substrate. Samples were measured for luminescence with an integration time of 500 milliseconds. IL-1β concentrations of samples was determined by interpolation from a standard curve using 4-parameter logistic regression analysis. Studies were performed on three different human donor samples, and each biological condition was tested in triplicate. Graphed data represent means from each donor.
as §1, with “Human moDC Production. Human” for “Human”, “(Miltenyi) according to the” for “(Miltenyi). Isolations were completed following”, “To differentiate” for “For studies with”, “pyruvate, and” for “pyruvate,”, “beta-mercaptoethanol” for “beta-mercaptoethanol, 10 mM HEPES, and Gibco MEM non-essential amino acids”
Hyperactivating Lipid Formulation—Compound 10. Lipid stocks were formulated at 200 μg/mL lipid in 5% Kolliphor P407 (KP407) in PBS.

The subject of series [2] is human moDCs. The series is described as follows: Cell viability of human moDCs (CellTiter-Glo). Particulars: human. As to the method: as §2
Measurement of Cytokine Secretion and Cell Viability. After an overnight incubation, cells and culture supernatant were used for downstream readouts. One hundred and fifty microliters of cell culture supernatant were collected. Viability was measured using the CellTiter-Glo assay (Promega) which measures ATP content from cells. Fifty microliters of CellTiter-Glo reagent were added to 50 μL of cells. Luminescence was quantified on a SpectraMax m5e plate reader using an integration time of 500 milliseconds. Viability data were set relative to control conditions where cells were treated with only R848. To measure IL-1β secretion, the human IL-1β Lumit kit (Promega) was used. […] Samples were measured for luminescence with an integration time of 500 milliseconds. IL-1β concentrations of samples was determined by interpolation from a standard curve using 4-parameter logistic regression analysis. […]

In series [3] the test system is human moDCs. The experiment in a line: moDC viability by LDH release and CellTiter-Glo 2.0. As to the method: Monocyte Isolation, Storage, and Differentiation into moDC.
CellTiter-Glo 2.0 Cell Viability Assay. As an additional method to measure cell viability, CellTiter-Glo 2.0 Cell Viability Assay kit from Promega was used. CellTiter-Glo 2.0 reagent was used according to instructions of the manufacturer. Briefly, frozen reagent was thawed at 4° C. and aliquoted. Aliquots were stored at 4° C. in the dark. After removing 150 μL of the cell culture volume for use in other assays, cells were lysed with 50 μL/well CellTiter-Glo reagent by pipetting up and down. After incubating in the dark at RT for 10 min, samples were transferred to white opaque 96-well plates. Luminescence was measured for 500 ms/well using a Spectramax M3 plate reader. Luminescence values were normalized to the mean values of control samples and multiplied 100-fold to report values as percentage viability.
For orientation: Release of lactate dehydrogenase indicates damage to the cell membrane.

The text below walks through data of patent publication US20260097111A1, “ETHER LIPIDS FOR HYPERACTIVATION OF MAMMALIAN DENDRITIC CELLS” (priority 2022, published 2026).

For `CO[C@@H]1C[C@@H](C[C@H]2CC[C@H](C)[C@H]([C@@H](C)C(=O)O)O2)O[C@]2(O[C@](C)([C@H]3CC[C@@](C)([C@@H]4O[C@@H]([C@H]5O[C@@](O)(CO)[C@H](C)C[C@@H]5C)C[C@@H]4C)O3)C[C@H]2C)[C@@H]1C` [nigericin], the IL-1β secretion entry in series [1] is “IL-1β was produced”. Further, the “decrease in cell viability” value in the series with human moDCs [2] is given as “approximately 50%”. For the same compound, in the series with human moDCs [3], the “cell viability (CellTiter-Glo)” value is given as “below 2%” and the “cell viability (LDH release assay)” value is reported as “below 75%”.
